In the supplement of paper PMC11451515:

Tested on: SEM cells
Assay: cell viability relative to DMSO control; higher = less cytotoxic
Settings: 48 h
Outline: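 Library compounds in DMSO were pin-dosed into 1536-well plates (5 μl) holding NOMO1 or SEM (500 cells/well) or P12-Ichikawa (1000 cells/well) leukemia cells, across an 11-point threefold series of 47 μM to 0.79 nM. Each cell line had been adapted for at least four passages in each medium. CellTiter-Glo One luminescence was read after 48 h at 37°C. Viability is the per-plate percentage relative to DMSO wells, with cell-free wells as background.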

[1] = HPLM + 10% dialyzed FBS, 0.000781 µM
[2] = HPLM + 10% dialyzed FBS, 0.00234 µM
[3] = HPLM + 10% dialyzed FBS, 0.00702 µM
[4] = HPLM + 10% dialyzed FBS, 0.0211 µM
[5] = HPLM + 10% dialyzed FBS, 0.0632 µM
[6] = HPLM + 10% dialyzed FBS, 0.19 µM
[7] = HPLM + 10% dialyzed FBS, 0.569 µM
[8] = HPLM + 10% dialyzed FBS, 1.71 µM
[9] = HPLM + 10% dialyzed FBS, 5.12 µM
[10] = HPLM + 10% dialyzed FBS, 15.4 µM
[11] = HPLM + 10% dialyzed FBS, 46.1 µM
[12] = RPMI 5 mM glucose + 10% FBS, 0.000781 µM
[13] = RPMI 5 mM glucose + 10% FBS, 0.00234 µM
[14] = RPMI 5 mM glucose + 10% FBS, 0.00702 µM
[15] = RPMI 5 mM glucose + 10% FBS, 0.0211 µM
[16] = RPMI 5 mM glucose + 10% FBS, 0.0632 µM
[17] = RPMI 5 mM glucose + 10% FBS, 0.19 µM
[18] = RPMI 5 mM glucose + 10% FBS, 0.569 µM
[19] = RPMI 5 mM glucose + 10% FBS, 1.71 µM
[20] = RPMI 5 mM glucose + 10% FBS, 5.12 µM
[21] = RPMI 5 mM glucose + 10% FBS, 15.4 µM
[22] = RPMI 5 mM glucose + 10% FBS, 46.1 µM
[23] = RPMI 5 mM glucose + 10% dialyzed FBS, 0.000781 µM
[24] = RPMI 5 mM glucose + 10% dialyzed FBS, 0.00234 µM
[25] = RPMI 5 mM glucose + 10% dialyzed FBS, 0.00702 µM
[26] = RPMI 5 mM glucose + 10% dialyzed FBS, 0.0211 µM
[27] = RPMI 5 mM glucose + 10% dialyzed FBS, 0.0632 µM
[28] = RPMI 5 mM glucose + 10% dialyzed FBS, 0.19 µM
[29] = RPMI 5 mM glucose + 10% dialyzed FBS, 0.569 µM
[30] = RPMI 5 mM glucose + 10% dialyzed FBS, 1.71 µM
[31] = RPMI 5 mM glucose + 10% dialyzed FBS, 5.12 µM
[32] = RPMI 5 mM glucose + 10% dialyzed FBS, 15.4 µM
[33] = RPMI 5 mM glucose + 10% dialyzed FBS, 46.1 µM

Row | Structure (SMILES) | cell viability [1] [%] | cell viability [2] [%] | cell viability [3] [%] | cell viability [4] [%] | cell viability [5] [%] | cell viability [6] [%] | cell viability [7] [%] | cell viability [8] [%] | cell viability [9] [%] | cell viability [10] [%] | cell viability [11] [%] | cell viability [12] [%] | cell viability [13] [%] | cell viability [14] [%] | cell viability [15] [%] | cell viability [16] [%] | cell viability [17] [%] | cell viability [18] [%] | cell viability [19] [%] | cell viability [20] [%] | cell viability [21] [%] | cell viability [22] [%] | cell viability [23] [%] | cell viability [24] [%] | cell viability [25] [%] | cell viability [26] [%] | cell viability [27] [%] | cell viability [28] [%] | cell viability [29] [%] | cell viability [30] [%] | cell viability [31] [%] | cell viability [32] [%] | cell viability [33] [%]
1 | Clc1ccc(C(c2ccc(Cl)cc2)[n+]2ccn(CC(OCc3ccc(Cl)cc3Cl)c3ccc(Cl)cc3Cl)c2)cc1 (stereo not given) | 108 | 121 | 107 | 105 | 117 | 112 | 108 | 117 | 117 | 61 | 5.22 | 109 | 111 | 117 | 120 | 132 | 127 | 124 | 111 | 106 | 37.7 | 1.63 | 112 | 117 | 118 | 109 | 108 | 123 | 124 | 115 | 125 | 83.3 | 3.06
2 | CN(C)C(=O)[C@H](O)[C@H](Cc1ccccc1)NC(=O)c1cc2cc(Cl)ccc2[nH]1 | 98.5 | 109 | 107 | 118 | 122 | 119 | 109 | 86.1 | 14 | 11.2 | 7.62 | 95.8 | 80.9 | 81.7 | 86.3 | 108 | 94.6 | 104 | 81.2 | 14 | 8.95 | 6.87 | 85.2 | 108 | 105 | 100 | 111 | 105 | 105 | 77.9 | 18.8 | 8.36 | 6.18
3 | CCC[C@H](Nc1nc(-c2ccc(NC(=O)NCC)c(OC)c2)ncc1C)c1cccnc1 | 87.7 | 108 | 94 | 112 | 27.2 | 28.4 | 26.7 | 19.4 | 12.9 | 13.1 | 10.7 | 4.71 | 78.8 | 84.3 | 114 | 16.5 | 21 | 17.2 | 10.4 | 6.57 | 6.69 | 3.95 | 102 | 105 | 87.1 | 134 | 23.6 | 23.7 | 24.9 | 10.9 | 7.58 | 7.31 | 4.35
4 | N#Cc1cc(NC(=O)Nc2nnc(-c3ccncc3)s2)ccc1-c1cn[nH]c1 |  |  |  |  |  |  |  |  |  |  |  | 96 | 111 | 93 | 85.1 | 96.4 | 106 | 107 | 105 | 87.9 | 93.1 | 89.2 | 107 | 120 | 128 | 107 | 98.6 | 129 | 113 | 122 | 127 | 93 | 108
5 | Clc1ccc(CCC(Cn2ccnc2)Sc2c(Cl)cccc2Cl)cc1 (stereo not given) | 73 | 71.5 | 77.3 | 83.5 | 72.8 | 95 | 76.3 | 77.3 | 80.1 | 76.8 | 61.2 | 78.7 | 88 | 97.7 | 89.7 | 85.7 | 83.6 | 101 | 100 | 92.6 | 86.1 | 52.5 | 78.8 | 88.7 | 100 | 92.5 | 82 | 103 | 89.4 | 77.4 | 76.9 | 85.3 | 57.3
6 | CC(C)(Sc1cc(C(C)(C)C)c(O)c(C(C)(C)C)c1)Sc1cc(C(C)(C)C)c(O)c(C(C)(C)C)c1 | 73.2 | 89.8 | 60 | 90.9 | 91.2 | 91.9 | 84.2 | 81.4 | 46.4 | 89.1 | 90 | 90 | 94.6 | 67 | 96.1 | 80.7 | 103 | 91.3 | 84.1 | 49.1 | 95.4 | 105 | 79 | 81.5 | 76.7 | 97.7 | 86.1 | 94.5 | 90.2 | 89.3 | 54.4 | 89.1 | 104
7 | CCOc1ccccc1N/N=C1/C(=O)N(c2nc(-c3ccccc3)cs2)N=C1C | 124 | 114 | 93 | 122 | 105 | 99.2 | 100 | 86.4 | 45.9 | 8.56 | 3.58 | 103 | 114 | 102 | 116 | 144 | 110 | 111 | 70.7 | 70 | 9.65 | 2.74 | 114 | 106 | 101 | 115 | 106 | 97.4 | 81.7 | 77.1 | 59.4 | 9.71 | 3.01
